Literature values as cited in patent US20100227930A1 (priority 2009, published 2010).

Tests used:
[1] = species not given
rainbow trout = settings: in vivo
algae = settings: duration not given
fish = settings: in vivo
[2] = compared with the 2:1:1 blend of three quaternary ammonium compounds

COC(C)COC(C)CO (stereo not drawn) [Dipropylene glycol methyl ether]
aquatic acute toxicity [1]: > 100 mg/L

O=C([O-])CCC(C(=O)[O-])N(CC(=O)[O-])CC(=O)[O-].[Na+].[Na+].[Na+].[Na+] (stereo not drawn) [Dissolvine GL, Glutamic acid, N,N Diacetic acid and their Tetrasodium salts]
EC50 fish (rainbow trout) (rainbow trout): > 100 µg/mL
EC50 Algae (algae): > 100 µg/mL
EC50 Daphnia Magna (Daphnia magna; duration not given): > 100 µg/mL

O=C([O-])CC(NC(CC(=O)[O-])C(=O)[O-])C(=O)[O-].[Na+].[Na+].[Na+].[Na+] (stereo not drawn) [IDS, iminodisuccinate tetrasodium salt]
DL50 oral rat acute toxicity: over 2,000 mg/kg
EC50 Algae (algae): 94.5 µg/mL
EC0 Daphnia Magna (Daphnia magna; in vivo): 84 mg/L
acute aquatic toxicity fish (fish): 82.6 mg/L

CCCCCCCCCC[N+](C)(C)CCCCCCCCCC.[Cl-] [didecyl dimethyl ammonium chloride]
water solubility [2]: poorer water solubility
